Laboratory results as given in ChEMBL document CHEMBL1147308, “Novel secoiridoid lactones from Jasminum multiflorum” (1989).
Active and inactive are the calls of the source. The rule behind the calls is not given here.

What was measured:
Heart [1] = experiment: Cardiotropic activity in perfused guinea pig heart assessed as minimum effective concentration; type: functional, Cavia porcellus
Heart [2] = experiment: Cardiotropic activity in perfused guinea pig heart assessed as negative ionotropy; type: functional, tissue-based; conditions: Cavia porcellus
Heart [3] = experiment: Cardiotropic activity in perfused guinea pig heart assessed as negative chronotropy; type: functional, tissue-based; conditions: Cavia porcellus
Heart [4] = experiment: Coronary dilatory activity in perfused guinea pig heart assessed as minimum effective concentration; type: functional, Cavia porcellus
Heart [5] = experiment: Cardiotropic activity in perfused guinea pig heart assessed as positive ionotropy; type: functional, tissue-based; conditions: Cavia porcellus
Heart [6] = experiment: Cardiotropic activity in perfused guinea pig heart assessed as positive chronotropy; type: functional, tissue-based; conditions: Cavia porcellus

For `COC(=O)C1=CO[C@@H](O)[C@H]2[C@@H]1CC(=O)OC[C@H]2OCCc1ccc(O)c(O)c1` [JASMOLACTONE A], the MEC (Heart [1]) was 2.5 ×10⁻⁵ M, the Activity (Heart [2]) was “Active” and the Activity (Heart [3]) was “inactive”. The MEC (Heart [4]) was 1.3 ×10⁻⁵ M.
For `CC(C)NCC(O)c1ccc(O)c(O)c1` (configuration not stated) [ISOPROTERENOL], the Activity (Heart [5]) was “Active”, the MEC (Heart [1]) was 4.7 ×10⁻⁸ M and the Activity (Heart [6]) was “Active”. For the same compound, the MEC (Heart [4]) was 4.7 ×10⁻⁷ M.
In the case of `O=C1C[C@@H]2C(C(=O)OCCc3ccc(O)c(O)c3)=CO[C@@H](O)[C@@H]2[C@H](OCCc2ccc(O)c(O)c2)CO1` [JASMOLACTONE B], the MEC (Heart [1]) is reported as 9.7 ×10⁻⁶ M, the Activity (Heart [2]) is reported as “Active” and the Activity (Heart [3]) is reported as “inactive”. It also gave an MEC (Heart [4]) of 4.8 ×10⁻⁶ M.
